# Reference: patent US6392032B1, “Heavily fluorinated sugar analogs” (Board of Regents University of Nebraska-Lincoln, priority 1996, dated 2002)
# Experiment: Qualitative solubility in solvents
# Type: physicochemical
compound,measurement,setting,value
"OCC12OC(O)C1C(F)(F)C(F)(F)C2(F)F (centres unmarked) [Compound 6, 1-Hydroxy-5-(5′-hydroxymethyl)-2,2,3,3,4,4-hexafluorooxane]",Qualitative solubility,in CHCl3 and other solvents of lower polarity,insoluble
same,Qualitative solubility,"in acetone, EtOAc, ether, and water",soluble
